Measured values published in patent US8546443B2, “Benzylic oxindole pyrimidines” (Boehringer Ingelheim International GmbH, priority 2010, dated 2013).

Experiments:
[1] = biological target: T1, cytoplasmic kinase domain of human IGF-1R (IGF-1R-GST) (Homo sapiens, UniProt P08069); test: Insulin-like growth factor-1 receptor (IGF-1R) kinase assay (DELFIA); format: biochemical; conditions: IGF-1R-GST kinase activity, read-out: IGF1R IC50
T1 construct: cytoplasmic kinase domain of human IGF-1R (amino acids 964-1370); GST (glutathione-S-transferase); made in house; host or cells: High Five insect cells (Invitrogen)
T1 sequence (P08069 964-1367 limits assumed): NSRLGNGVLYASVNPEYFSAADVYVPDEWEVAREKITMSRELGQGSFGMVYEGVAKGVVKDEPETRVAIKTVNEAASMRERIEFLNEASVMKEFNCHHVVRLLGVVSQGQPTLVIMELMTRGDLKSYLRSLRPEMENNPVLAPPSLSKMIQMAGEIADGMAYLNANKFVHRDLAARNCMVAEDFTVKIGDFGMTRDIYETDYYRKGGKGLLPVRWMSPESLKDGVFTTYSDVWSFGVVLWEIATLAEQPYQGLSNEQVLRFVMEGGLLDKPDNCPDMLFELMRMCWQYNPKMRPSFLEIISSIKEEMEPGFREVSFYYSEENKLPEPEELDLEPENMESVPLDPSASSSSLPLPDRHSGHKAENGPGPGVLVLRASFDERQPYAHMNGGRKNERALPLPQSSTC
Procedure, shortened: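 GST-tagged IGF-1R cytoplasmic kinase domain phosphorylates pEY with biotinylated pEY for 40 min at RT; EDTA stop. Product captured on streptavidin, detected with europium anti-phosphotyrosine antibody by DELFIA time-resolved fluorescence; IC50 from inhibition curves.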

[2] = test system: TC-71 (Ewing's sarcoma) cells; test: Cell proliferation assay, TC-71 (Alamar Blue); format: cell-based; conditions: 72 h with compound, EC50 ranges as class symbols
Description: Cell Proliferation Assays
Compounds were tested for their anti-proliferative effects in the TC-71 (Ewing's sarcoma) and HCT 116 (colorectal carcinoma) cancer cell lines in vitro. Published scientific data has described that interference with the Insulin-like Growth Factor-1 Receptor (IGF-1R) signaling pathway reduces the proliferation of TC-71 cells. Therefore TC-71 cells served as a positive control cell line for monitoring the activity of compounds against IGF-1R-mediated cell proliferation. […] Therefore the HCT 116 cell line served as a negative control.
2000 TC-71 cells or 1000 HCT 116 cells were seeded per well in 180 μL IMDM+10% foetal calf serum (FCS)+ penicillin/streptomycin into 96-well microtitre plates. The plates were placed in a cell culture incubator (37° C. in a humidified atmosphere of […]/5 CO2) overnight. The following day, serial dilutions of compounds, prepared in duplicates, were transferred onto the cell layers (controls without compound). The cells were cultivated for a further 72 h in the cell culture incubator. 20 μL of Alamar Blue™ (Serotec Ltd, Düsseldorf, Germany) was added to each well and the plates incubated for 7 h in the cell culture incubator. Fluorescence (extinction wavelength of 544 nm and emission at 590 nm) was then measured and the normalized data fitted by iterative calculation with a sigmoidal curve analysis program (Graph Pad Prism) with a variable Hill slope to determine the IC50 values.

SMILES	IC50 [1] [nM]	EC50 [2] [nM]
CC1(C)C(=O)Nc2cccc(CNc3nc(Nc4ccc(C5CCN(C(=O)C6CCCN6)CC5)cc4)ncc3Br)c21 (stereo not shown) [Example I-55]	1	50 to 250
CC1(C)C(=O)Nc2cccc(CNc3nc(Nc4ccc(C5CCN(C(=O)C6CCN6)CC5)cc4)ncc3Br)c21 (stereo not shown) [Example I-56]	2	250 to 3000
Cc1cc(C2CCN(C(=O)CN(C)C)CC2)ccc1Nc1ncc(Br)c(NCc2cccc3c2C(C)(C)C(=O)N3)n1 [Example I-57]	0.76	< 50
CN(C)CC(=O)N1CCC(n2cc(Nc3ncc(Cl)c(NCc4cccc5c4C(C)(C)C(=O)N5)n3)cn2)CC1 [Example I-66]	6	250 to 3000
COc1cc(C2CCN(C(=O)CN(C)C)CC2)ccc1Nc1ncc(Br)c(NCc2cccc3c2C(C)(C)C(=O)N3)n1 [Example I-68]	0.4	< 50
Cc1cc(C2CCN(C)CC2)ccc1Nc1ncc(Br)c(NCc2cccc3c2C(C)(C)C(=O)N3)n1 [Example I-103]	0.69	< 50
COc1cc(N2CCN(C)CC2)ccc1Nc1ncc(C(F)(F)F)c(NCc2cccc3c2C(C)(C)C(=O)N3)n1 [Example I-104]	0.1	< 50
Cc1cc(C2CCN(S(C)(=O)=O)CC2)ccc1Nc1ncc(Cl)c(NCc2cccc3c2C(C)(C)C(=O)N3)n1 [Example I-203]	14	250 to 3000
COCCN1CCC(c2ccc(Nc3ncc(Cl)c(NCc4cccc5c4C(C)(C)C(=O)N5)n3)cc2)CC1 [Example I-204]	2	50 to 250
COCCN1CCC(c2ccc(Nc3ncc(Br)c(NCc4cccc5c4C(C)(C)C(=O)N5)n3)cc2)CC1 [Example I-208]	0.68	50 to 250
CC(C)(O)CN1CCC(c2ccc(Nc3ncc(Br)c(NCc4cccc5c4C(C)(C)C(=O)N5)n3)cc2)CC1 [Example I-210]	0.47	< 50
CC(C)(O)CN1CCC(c2ccc(Nc3ncc(Cl)c(NCc4cccc5c4C(C)(C)C(=O)N5)n3)cc2)CC1 [Example I-211]	3	50 to 250
CC1(C)C(=O)Nc2cccc(CNc3nc(Nc4ccc(C5CCN(CCCF)CC5)cc4)ncc3Br)c21 [Example I-212]	3	50 to 250
CC1(C)C(=O)Nc2cccc(CNc3nc(Nc4ccc(C5CCN(CCCF)CC5)cc4)ncc3Cl)c21 [Example I-213]	4	50 to 250
Cc1cc(C2CCN(CCO)CC2)ccc1Nc1ncc(Br)c(NCc2cccc3c2C(C)(C)C(=O)N3)n1 [Example I-214]	0.62	< 50
COCCN1CCC(n2cc(Nc3ncc(Cl)c(NCc4cccc5c4C(C)(C)C(=O)N5)n3)cn2)CC1 [Example I-215]	12	250 to 3000
Cc1cc(C2CCN(CCS(C)(=O)=O)CC2)ccc1Nc1ncc(Cl)c(NCc2cccc3c2C(C)(C)C(=O)N3)n1 [Example I-216]	2	50 to 250

SMILES	IC50 [1] [nM]	EC50 [2] [nM]
Cc1cc(C2CCN(CCO)CC2)ccc1Nc1ncc(Cl)c(NCc2cccc3c2C(C)(C)C(=O)N3)n1 [Example I-217]	1	50 to 250
COCCN1CCC(c2ccc(Nc3ncc(Cl)c(NCc4cccc5c4C(C)(C)C(=O)N5)n3)c(C)c2)CC1 [Example I-218]	1	< 50
Cc1cc(C2CCN(CC(N)=O)CC2)ccc1Nc1ncc(Cl)c(NCc2cccc3c2C(C)(C)C(=O)N3)n1 [Example I-220]	2	50 to 250
COCCN1CCC(c2ccc(Nc3ncc(Br)c(NCc4cccc5c4C(C)(C)C(=O)N5)n3)c(C)c2)CC1 [Example I-221]	0.98	< 50
COCC(=O)N1CCC(c2ccc(Nc3ncc(Cl)c(NCc4cccc5c4C(C)(C)C(=O)N5)n3)c(C)c2)CC1 [Example I-292]	5	50 to 250
CNC1(C(=O)N2CCC(c3ccc(Nc4ncc(Cl)c(NCc5cccc6c5C(C)(C)C(=O)N6)n4)c(C)c3)CC2)CC1 [Example I-295]	4	50 to 250
Cc1cc(C2CCN(C(=O)C(C)(C)O)CC2)ccc1Nc1ncc(Cl)c(NCc2cccc3c2C(C)(C)C(=O)N3)n1 [Example I-297]	9	50 to 250
CNC1(C(=O)N2CCC(c3ccc(Nc4ncc(Cl)c(NCc5cccc6c5C(C)(C)C(=O)N6)n4)cc3)CC2)CC1 [Example I-299]	8	< 50
COc1cc(C2CCN(C(=O)C(C)(C)O)CC2)ccc1Nc1ncc(Cl)c(NCc2cccc3c2C(C)(C)C(=O)N3)n1 [Example I-300]	11	< 50
COc1cc(C2CCN(CC(C)(C)O)CC2)ccc1Nc1ncc(C(F)(F)F)c(NCc2cccc3c2C(C)(C)C(=O)N3)n1 [Example I-302]	0.6	< 50
Cc1cc(Nc2ncc(C(F)(F)F)c(NCc3cccc4c3C(C)(C)C(=O)N4)n2)ccc1C1CCN(CC(C)(C)O)CC1 [Example I-303]	0.2	< 50
Cc1cc(N2CCN(CC(C)(C)O)CC2)ccc1Nc1ncc(C(F)(F)F)c(NCc2cccc3c2C(C)(C)C(=O)N3)n1 [Example I-305]	2	50 to 250
Cc1cc(C2CCN(C)CC2)ccc1Nc1ncc(C(F)(F)F)c(NCc2cccc3c2C(C)(C)C(=O)N3)n1 [Example I-308]	0.8	< 50
CC(C)(O)CN1CCC(c2ccc(Nc3ncc(C(F)(F)F)c(NCc4cccc5c4C(C)(C)C(=O)N5)n3)c(OC(F)F)c2)CC1 [Example I-310]	5	50 to 250
Cc1c(Nc2ncc(C(F)(F)F)c(NCc3cccc4c3C(C)(C)C(=O)N4)n2)ccc(C2CCN(CC(C)(C)O)CC2)c1C [Example I-313]	0.5	< 50
Cc1cc([C@H]2CCCN(CC(C)(C)O)C2)ccc1Nc1ncc(Br)c(NCc2cccc3c2C(C)(C)C(=O)N3)n1 [Example I-319]	2	< 50

The remaining lines, values ahead:

IC50 [1] [nM]	EC50 [2] [nM]	SMILES
15	50 to 250	Cc1cc(C2CCN(C(=O)N(C)C)CC2)ccc1Nc1ncc(Cl)c(NCc2cccc3c2C(C)(C)C(=O)N3)n1 [Example I-67]
1	< 50	Cc1cc(C2CCN(C(=O)CN(C)C)CC2)ccc1Nc1ncc(Cl)c(NCc2cccc3c2C(C)(C)C(=O)N3)n1 [Example I-69]
2	< 50	COc1cc(N2CCN(C)CC2)ccc1Nc1ncc(Cl)c(NCc2cccc3c2C(C)(C)C(=O)N3)n1 [Example I-97]
4	50 to 250	CN1CCC(n2cc(Nc3ncc(Cl)c(NCc4cccc5c4C(C)(C)C(=O)N5)n3)cn2)CC1 [Example I-102]
4	250 to 3000	COc1cc(N2CCN(C)CC2)ccc1Nc1ncc(C(F)(F)F)c(NCc2cccc3c2C2(CC2)C(=O)N3)n1 [Example I-160]
1	50 to 250	CC1(C)C(=O)Nc2cccc(CNc3nc(Nc4ccc(C5CCN(CCO)CC5)cc4)ncc3Br)c21 [Example I-209]
10	50 to 250	CCNC(=O)N1CCC(c2ccc(Nc3ncc(Cl)c(NCc4cccc5c4C(C)(C)C(=O)N5)n3)c(C)c2)CC1 [Example I-293]
7	250 to 3000	Cc1cc(C2CCN(C(N)=O)CC2)ccc1Nc1ncc(Cl)c(NCc2cccc3c2C(C)(C)C(=O)N3)n1 [Example I-294]
1	50 to 250	COc1cc(C2CCN(C(=O)CO)CC2)ccc1Nc1ncc(Cl)c(NCc2cccc3c2C(C)(C)C(=O)N3)n1 [Example I-296]
7	50 to 250	Cc1cc(C2CCN(C(=O)CO)CC2)ccc1Nc1ncc(Cl)c(NCc2cccc3c2C(C)(C)C(=O)N3)n1 [Example I-298]
1	< 50	COc1cc(N2CCN(CC(C)(C)O)CC2)ccc1Nc1ncc(C(F)(F)F)c(NCc2cccc3c2C(C)(C)C(=O)N3)n1 [Example I-304]
1	< 50	Cc1cc(N2CCN(C)CC2)ccc1Nc1ncc(C(F)(F)F)c(NCc2cccc3c2C(C)(C)C(=O)N3)n1 [Example I-307]
1	< 50	Cc1cc(C2CCN(CC(C)(C)O)CC2)ccc1Nc1ncc(C(F)(F)F)c(NCc2cccc3c2C(C)(C)C(=O)N3)n1 [Example I-309]
15	50 to 250	Cc1cc(Nc2ncc(C(F)(F)F)c(NCc3cccc4c3C(C)(C)C(=O)N4)n2)c(F)cc1C1CCN(CC(C)(C)O)CC1 [Example I-311]
27	50 to 250	Cc1cc(C2CCN(CC(C)(C)O)CC2)c(C)cc1Nc1ncc(C(F)(F)F)c(NCc2cccc3c2C(C)(C)C(=O)N3)n1 [Example I-312]
5	50 to 250	CCc1cc(C2CCN(CC(C)(C)O)CC2)ccc1Nc1ncc(C(F)(F)F)c(NCc2cccc3c2C(C)(C)C(=O)N3)n1 [Example I-314]
6	< 50	Cc1cc(N2CCN(CC(C)(C)O)CC2)ccc1Nc1ncc(Br)c(NCc2cccc3c2C(C)(C)C(=O)N3)n1 [Example I-317]
